Laboratory results reported in US20240239848A1, “HOLOTHURIAN-DERIVED ACTIVE PEPTIDE WITH IMMUNE ACTIVITY, PREPARATION METHOD AND APPLICATION THEREOF” (BOHAI UNIVERSITY, priority 2023, published 2024).
No end group written: not given here.

Columns and labels:
Format in all cases: cell-based, mouse
[1] = system: macrophage RAW264.7 induced by LPS; test: NO release from macrophage RAW264.7 induced by LPS (NO kit)
Method: (2) Influence of Synthetic Peptide on NO Release from Macrophage RAW264.7 Induced by LPS
(§1) Blank group: macrophage RAW264.7 cells are inoculated into a 96-well plate and cultured for 24 h.
Induced injury group: after cell culture, cells in blank group are treated with 100 ng/ml LPS for 24 h, and then treated with synthetic peptides with different concentrations (50-200 μg/mL) for 24 h.
(§2) Negative control group: after cell culture in blank group, cells are treated with 100 ng/mL LPS for 24 h.
The NO release amount of different components is measured by NO kit. After 24 hours of treatment with synthetic peptides with different concentrations, the NO release amount of macrophage RAW264.7 induced by LPS is shown in FIG. 3.

macrophage RAW264.7 = test: Survival rate of macrophages RAW264.7 (CCK-8 method); settings: RAW264.7, synthetic peptide 50-200 μg/mL, 24 h
Method: Blank group: Macrophages RAW264.7 are inoculated into 96-well plates and cultured for 24 h.
Sample group: synthetic peptides with different concentrations (50-200 μg/mL) are used for treating for 24 h.
The CCK-8 method is used to measure the absorbance values of different components, and the survival rate of macrophage RAW264.7 is calculated according to the absorbance values.

IL-1β = IL-1β secretion of macrophage RAW264.7 induced by LPS (ELISA); settings: LPS-induced RAW264.7, peptide 200 μg/mL
Method: (§3) (2) Influence of IIENAVQ on the secretion of cytokines (IL-1β, TNF-α) of macrophage RAW264.7 induced by LPS
as §1
(§4) Induced injury group: after the cells in the blank group are cultured, the cells are treated with 100 ng/mL LPS for 24 h, and then treated with different concentrations (50-200 μg/mL) of IIENAVQ for 24 h.
as §2
(§5) The cytokines of different components are determined by ELISA kit.
(§6) The final detection results of (1) and (2) are illustrated in FIG. 4A and FIG. 4B.

TNF-α = TNF-α secretion of macrophage RAW264.7 induced by LPS (ELISA); settings: LPS-induced RAW264.7, peptide 200 μg/mL
Method: as §3, §1, §4, §2, §5, §6

## IIENAVQ [IIENAVQ]
[1]; 100 ng/mL LPS 24 h, then peptide 50-200 μg/mL 24 h
  release of NO from macrophages RAW264.7 induced by LPS, compared with LPS-negative control group: significantly reduces
[1]; LPS-induced RAW264.7, peptide 200 μg/mL
  final concentration of NO: 27.99 ± 0.33 µmol/L
Macrophage RAW264.7
  cell survival rate: 116.88%
IL-1β
  inhibition rate of IL-1β secretion: 51.54%
  secretion of cytokine IL-1β: 28.73 ± 1.12 pg/mL
TNF-α
  inhibition rate of TNF-α secretion: 60.24%
  secretion of cytokine TNF-α: 70.78 ± 5.55 pg/mL
